Assay results as given in ChEMBL document CHEMBL1132398, “Identification of (-)-cis-6-acetyl-4S-(3-chloro-4-fluoro-benzoylamino)- 3,4-dihydro-2,2-dimethyl-2H-benzo[b]pyran-3S-ol as a potential antimigraine agent” (Bioorg Med Chem Lett, 1999).

Assays:
Mus musculus [1] = test: In vivo percent increase in seizure threshold in mouse MEST model 4 hours following 10 mg/kg p.o.; settings: at 10 mg/kg
Mus musculus [2] = test: In vivo percent increase in seizure threshold in mouse MEST model 1 hour following 10 mg/kg p.o.; settings: at 10 mg/kg
Rattus norvegicus [3] = species on record: Rattus norvegicus; test: Ability to displace [3H]- SB-204269 in the rat forebrain
Rattus norvegicus [4] = test: In vivo percent increase in seizure threshold in rat MEST model at the dose of 10 mg/kg p.o. recorded 0.5 hr post dose; assay type: functional; settings: route oral
Rattus norvegicus [5] = test: In vivo percent increase in seizure threshold in rat MEST model at the dose of 10 mg/kg p.o. recorded 2 hr post dose; assay type: functional; settings: route oral
Rattus norvegicus [6] = test: In vivo percent increase in seizure threshold in rat MEST model at the dose of 10 mg/kg p.o. recorded 6 hr post dose; assay type: functional; settings: route oral
Rattus norvegicus [7] = test: In vivo percent increase in seizure threshold in rat MEST model at the dose of 10 mg/kg p.o. recorded 1 hr post dose; assay type: functional; settings: route oral
Rattus norvegicus [8] = test: In vivo percent increase in seizure threshold in rat MEST model at the dose of 10 mg/kg p.o. recorded 0.25 hr post dose; assay type: functional; settings: route oral
Rattus norvegicus [9] = test: In vivo percent increase in seizure threshold in rat MEST model at the dose of 3 mg/kg p.o. recorded 0.25 hr post dose; assay type: functional; settings: route oral
Rattus norvegicus [10] = test: In vivo percent increase in seizure threshold in rat MEST model at the dose of 3 mg/kg p.o. recorded 4 hr post dose; assay type: functional; settings: route oral
Rattus norvegicus [11] = test: In vivo percent increase in seizure threshold in rat MEST model at the dose of 3 mg/kg p.o. recorded 1 hr post dose; assay type: functional; settings: route oral
Rattus norvegicus [12] = test: In vivo percent increase in seizure threshold in rat MEST model at the dose of 3 mg/kg p.o. recorded 0.5 hr post dose; assay type: functional; settings: route oral
Rattus norvegicus [13] = test: In vivo percent increase in seizure threshold in rat MEST model at the dose of 3 mg/kg p.o. recorded 6 hr post dose; assay type: functional; settings: route oral
Rattus norvegicus [14] = test: In vivo percent increase in seizure threshold in rat MEST model at the dose of 3 mg/kg p.o. recorded 2 hr post dose; assay type: functional; settings: route oral

For `CC(=O)c1ccc2c(c1)[C@H](NC(=O)c1ccsc1Cl)[C@@H](O)C(C)(C)O2`, the Increase (Mus musculus [1]) was 519% and the Increase (Mus musculus [2]) was 95%.

In the case of `CC(=O)c1ccc2c(c1)[C@H](NC(=O)c1cnccn1)[C@@H](O)C(C)(C)O2`, the Increase (Mus musculus [2]) was 15%.

`CC(=O)c1ccc2c(c1)[C@H](NC(=O)c1cc(Cl)cc(Cl)c1Cl)[C@@H](O)C(C)(C)O2` showed an Increase (Mus musculus [2]) of 33%.

`CC(=O)c1ccc2c(c1)[C@H](NC(=O)c1cccnc1)[C@@H](O)C(C)(C)O2` showed an Increase (Mus musculus [2]) of 30%.

With `CC(=O)c1ccc2c(c1)[C@@H](NC(=O)c1cccc(Cl)c1)[C@@H](O)C(C)(C)O2` the Log Ki (Rattus norvegicus [3]) was over -5.4.

In the case of `CC(=O)c1ccc2c(c1)[C@H](NC(=O)c1ccc(F)cc1Cl)[C@H](O)C(C)(C)O2`, the Increase (Mus musculus [1]) was 269%, the Increase (Mus musculus [2]) was 153% and the “Log Ki” value (Rattus norvegicus [3]) was -7.2.

`CC(=O)c1ccc2c(c1)[C@H](NC(=O)c1cccc(Cl)c1Cl)[C@@H](O)C(C)(C)O2` gave an Increase (Rattus norvegicus [4]) of 286%, an Increase (Rattus norvegicus [5]) of 1124% and an Increase (Rattus norvegicus [6]) of 1076%. It also gave an Increase (Rattus norvegicus [7]) of 880% and an Increase (Rattus norvegicus [8]) of 104%.

With `CC(=O)c1ccc2c(c1)[C@H](NC(=O)c1ccsc1Cl)[C@H](O)C(C)(C)O2` the Increase (Mus musculus [1]) was 383%, the Increase (Mus musculus [2]) was 47% and the “Log Ki” value (Rattus norvegicus [3]) was -7.5.

In the case of `CC(=O)c1ccc2c(c1)[C@H](NC(=O)c1cccc(Cl)c1)[C@H](O)C(C)(C)O2`, the Increase (Mus musculus [1]) was 604% and the Increase (Mus musculus [2]) was 93%.

For `CC(=O)c1ccc2c(c1)[C@H](NC(=O)c1ccc(F)cc1)[C@@H](O)C(C)(C)O2` [CARABERSAT], the Increase (Rattus norvegicus [4]) was 90%, the Increase (Rattus norvegicus [5]) was 420% and the Increase (Rattus norvegicus [6]) was 390%. For the same molecule, the Increase (Rattus norvegicus [7]) was 180%, the Increase (Rattus norvegicus [8]) was 48% and the “Log Ki” value (Rattus norvegicus [3]) was -7.3.

For `CC(=O)c1ccc2c(c1)[C@H](NC(=O)c1ccc(F)cc1Cl)[C@@H](O)C(C)(C)O2`, the Increase (Rattus norvegicus [9]) was 90%, the Increase (Rattus norvegicus [10]) was 900% and the Increase (Rattus norvegicus [11]) was 300%. The Increase (Rattus norvegicus [12]) was 208%, the Increase (Mus musculus [1]) was 1080% and the Increase (Mus musculus [2]) was 162%. The Increase (Rattus norvegicus [13]) was 1060% and the Increase (Rattus norvegicus [14]) was 660%.

Molecule `CC(=O)c1ccc2c(c1)[C@H](NC(=O)c1c(Cl)cccc1Cl)[C@@H](O)C(C)(C)O2` has an Increase (Mus musculus [2]) of 10%.

Work on `CC(=O)c1ccc2c(c1)[C@H](NC(=O)c1ccsc1)[C@@H](O)C(C)(C)O2` yielded an Increase (Mus musculus [2]) of 50%.

Molecule `CC(=O)c1ccc2c(c1)[C@H](NC(=O)c1ccc(F)c(Cl)c1)[C@H](O)C(C)(C)O2` [TONABERSAT] has an Increase (Rattus norvegicus [9]) of 76%, an Increase (Rattus norvegicus [10]) of 533% and an Increase (Rattus norvegicus [11]) of 369%. The Increase (Rattus norvegicus [12]) was 202%, the Increase (Rattus norvegicus [13]) was 638% and the Increase (Rattus norvegicus [14]) was 576%. The “Log Ki” value (Rattus norvegicus [3]) was -7.9.

`CC(=O)c1ccc2c(c1)[C@H](NC(=O)c1cccc(Cl)c1)[C@@H](O)C(C)(C)O2` was tested, and the Increase (Rattus norvegicus [4]) was 273%, the Increase (Rattus norvegicus [5]) was 796% and the Increase (Mus musculus [1]) was 945%. The Increase (Mus musculus [2]) was 90%, the Increase (Rattus norvegicus [6]) was 983% and the Increase (Rattus norvegicus [7]) was 507%. The Increase (Rattus norvegicus [8]) was 157%.
